We go through one compound from article PMC5428509, “Irreversible inhibition of BTK kinase by a novel highly selective inhibitor CHMFL-BTK-11 suppresses inflammatory response in rheumatoid arthritis model” (Scientific Reports, 2017).

Assay in all cases: biochemical
Holding throughout (parameters): KinomeScan competition binding panel (DiscoveRx), percent of control at 1 uM
What all share (settings): read-out: Percent Control

The target in one experiment is EPHA8 (Homo sapiens, UniProt P29322). Put shortly: (§1)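 Selectivity profiled across 456 kinases/mutants by KinomeScan binding technology.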
Another experiment concerns the target LIMK1 (Homo sapiens, UniProt P53667). Put shortly: as §1
A further experiment has as its target RIOK3 (Homo sapiens, UniProt O14730). The essentials: as §1
The target of experiment [1] is T1, RPS6KA5(Kin.Dom.1-N-terminal) (Homo sapiens, UniProt O75582).
T1 construct: Kin.Dom.1-N-terminal
Put shortly:
as §1

The target of another experiment is LCK (Homo sapiens, UniProt P06239). Put shortly: as §1
The next experiment addresses PAK1 (Homo sapiens, UniProt Q13153). Put shortly:
as §1

The target of experiment [2] is T2, ABL1(H396P)-nonphosphorylated (Homo sapiens, UniProt P00519, H396P).
T2 construct: nonphosphorylated
Put shortly: as §1

The target of the next experiment is BMPR2 (Homo sapiens, UniProt Q13873). Put shortly:
as §1

In experiment [3] the target is T3, RSK4(Kin.Dom.1-N-terminal) (Homo sapiens, UniProt Q9UK32).
T3 construct: gene RPS6KA6; Kin.Dom.1-N-terminal
The essentials:
as §1

In the next experiment the target is RIPK2 (Homo sapiens, UniProt O43353). The essentials: as §1
For the next experiment, the target named is KIT(V559D,V654A) (Homo sapiens, UniProt P10721, V559D/V654A). Put shortly: as §1
In a further experiment the target is MAP3K2 (Homo sapiens, UniProt Q9Y2U5). The essentials:
as §1

The target in a further experiment is T4, QSK (Homo sapiens, UniProt Q9Y2K2).
T4 construct: gene SIK3
Put shortly:
as §1

The target of another experiment is PIK3C2B (Homo sapiens, UniProt O00750). Put shortly:
as §1

In a further experiment the target is T5, AMPK-alpha1 (Homo sapiens, UniProt Q13131).
T5 construct: gene PRKAA1
Put shortly: as §1

The target of experiment [4] is T6, ABL1(F317L)-phosphorylated (Homo sapiens, UniProt P00519, F317L).
T6 construct: phosphorylated
Put shortly:
as §1

The next experiment addresses CAMKK2 (Homo sapiens, UniProt Q96RR4). Put shortly: as §1
The next experiment concerns the target IGF1R (Homo sapiens, UniProt P08069). Put shortly: as §1
Another experiment deals with PHKG2 (Homo sapiens, UniProt P15735). Put shortly: as §1
For the next experiment, the target named is PDGFRB (Homo sapiens, UniProt P09619). The essentials:
as §1

For another experiment, the target named is CSF1R-autoinhibited (Homo sapiens, UniProt P07333). The essentials:
as §1

The target of a further experiment is ACVR1 (Homo sapiens, UniProt Q04771). Put shortly:
as §1

For another experiment, the target named is T7, NIM1 (Homo sapiens, UniProt Q8IY84).
T7 construct: gene NIM1K
The essentials:
as §1

For another experiment, the target named is LRRK2(G2019S) (Homo sapiens, UniProt Q5S007, G2019S). Put shortly:
as §1

Molecules are shown by their SMILES.

Sequence of PHKG2 (P15735 whole entry): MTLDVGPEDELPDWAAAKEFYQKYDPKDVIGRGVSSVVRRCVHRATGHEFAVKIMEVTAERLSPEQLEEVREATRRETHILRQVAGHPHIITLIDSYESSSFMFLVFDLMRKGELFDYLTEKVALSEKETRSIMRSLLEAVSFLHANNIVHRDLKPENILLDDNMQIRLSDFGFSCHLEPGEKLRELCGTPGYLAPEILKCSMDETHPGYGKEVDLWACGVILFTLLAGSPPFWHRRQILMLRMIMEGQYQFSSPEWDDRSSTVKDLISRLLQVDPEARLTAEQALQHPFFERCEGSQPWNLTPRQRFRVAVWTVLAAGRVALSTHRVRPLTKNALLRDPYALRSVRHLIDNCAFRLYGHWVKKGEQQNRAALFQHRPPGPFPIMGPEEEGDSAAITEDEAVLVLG
Sequence of LRRK2(G2019S) (Q5S007 whole entry G2019S): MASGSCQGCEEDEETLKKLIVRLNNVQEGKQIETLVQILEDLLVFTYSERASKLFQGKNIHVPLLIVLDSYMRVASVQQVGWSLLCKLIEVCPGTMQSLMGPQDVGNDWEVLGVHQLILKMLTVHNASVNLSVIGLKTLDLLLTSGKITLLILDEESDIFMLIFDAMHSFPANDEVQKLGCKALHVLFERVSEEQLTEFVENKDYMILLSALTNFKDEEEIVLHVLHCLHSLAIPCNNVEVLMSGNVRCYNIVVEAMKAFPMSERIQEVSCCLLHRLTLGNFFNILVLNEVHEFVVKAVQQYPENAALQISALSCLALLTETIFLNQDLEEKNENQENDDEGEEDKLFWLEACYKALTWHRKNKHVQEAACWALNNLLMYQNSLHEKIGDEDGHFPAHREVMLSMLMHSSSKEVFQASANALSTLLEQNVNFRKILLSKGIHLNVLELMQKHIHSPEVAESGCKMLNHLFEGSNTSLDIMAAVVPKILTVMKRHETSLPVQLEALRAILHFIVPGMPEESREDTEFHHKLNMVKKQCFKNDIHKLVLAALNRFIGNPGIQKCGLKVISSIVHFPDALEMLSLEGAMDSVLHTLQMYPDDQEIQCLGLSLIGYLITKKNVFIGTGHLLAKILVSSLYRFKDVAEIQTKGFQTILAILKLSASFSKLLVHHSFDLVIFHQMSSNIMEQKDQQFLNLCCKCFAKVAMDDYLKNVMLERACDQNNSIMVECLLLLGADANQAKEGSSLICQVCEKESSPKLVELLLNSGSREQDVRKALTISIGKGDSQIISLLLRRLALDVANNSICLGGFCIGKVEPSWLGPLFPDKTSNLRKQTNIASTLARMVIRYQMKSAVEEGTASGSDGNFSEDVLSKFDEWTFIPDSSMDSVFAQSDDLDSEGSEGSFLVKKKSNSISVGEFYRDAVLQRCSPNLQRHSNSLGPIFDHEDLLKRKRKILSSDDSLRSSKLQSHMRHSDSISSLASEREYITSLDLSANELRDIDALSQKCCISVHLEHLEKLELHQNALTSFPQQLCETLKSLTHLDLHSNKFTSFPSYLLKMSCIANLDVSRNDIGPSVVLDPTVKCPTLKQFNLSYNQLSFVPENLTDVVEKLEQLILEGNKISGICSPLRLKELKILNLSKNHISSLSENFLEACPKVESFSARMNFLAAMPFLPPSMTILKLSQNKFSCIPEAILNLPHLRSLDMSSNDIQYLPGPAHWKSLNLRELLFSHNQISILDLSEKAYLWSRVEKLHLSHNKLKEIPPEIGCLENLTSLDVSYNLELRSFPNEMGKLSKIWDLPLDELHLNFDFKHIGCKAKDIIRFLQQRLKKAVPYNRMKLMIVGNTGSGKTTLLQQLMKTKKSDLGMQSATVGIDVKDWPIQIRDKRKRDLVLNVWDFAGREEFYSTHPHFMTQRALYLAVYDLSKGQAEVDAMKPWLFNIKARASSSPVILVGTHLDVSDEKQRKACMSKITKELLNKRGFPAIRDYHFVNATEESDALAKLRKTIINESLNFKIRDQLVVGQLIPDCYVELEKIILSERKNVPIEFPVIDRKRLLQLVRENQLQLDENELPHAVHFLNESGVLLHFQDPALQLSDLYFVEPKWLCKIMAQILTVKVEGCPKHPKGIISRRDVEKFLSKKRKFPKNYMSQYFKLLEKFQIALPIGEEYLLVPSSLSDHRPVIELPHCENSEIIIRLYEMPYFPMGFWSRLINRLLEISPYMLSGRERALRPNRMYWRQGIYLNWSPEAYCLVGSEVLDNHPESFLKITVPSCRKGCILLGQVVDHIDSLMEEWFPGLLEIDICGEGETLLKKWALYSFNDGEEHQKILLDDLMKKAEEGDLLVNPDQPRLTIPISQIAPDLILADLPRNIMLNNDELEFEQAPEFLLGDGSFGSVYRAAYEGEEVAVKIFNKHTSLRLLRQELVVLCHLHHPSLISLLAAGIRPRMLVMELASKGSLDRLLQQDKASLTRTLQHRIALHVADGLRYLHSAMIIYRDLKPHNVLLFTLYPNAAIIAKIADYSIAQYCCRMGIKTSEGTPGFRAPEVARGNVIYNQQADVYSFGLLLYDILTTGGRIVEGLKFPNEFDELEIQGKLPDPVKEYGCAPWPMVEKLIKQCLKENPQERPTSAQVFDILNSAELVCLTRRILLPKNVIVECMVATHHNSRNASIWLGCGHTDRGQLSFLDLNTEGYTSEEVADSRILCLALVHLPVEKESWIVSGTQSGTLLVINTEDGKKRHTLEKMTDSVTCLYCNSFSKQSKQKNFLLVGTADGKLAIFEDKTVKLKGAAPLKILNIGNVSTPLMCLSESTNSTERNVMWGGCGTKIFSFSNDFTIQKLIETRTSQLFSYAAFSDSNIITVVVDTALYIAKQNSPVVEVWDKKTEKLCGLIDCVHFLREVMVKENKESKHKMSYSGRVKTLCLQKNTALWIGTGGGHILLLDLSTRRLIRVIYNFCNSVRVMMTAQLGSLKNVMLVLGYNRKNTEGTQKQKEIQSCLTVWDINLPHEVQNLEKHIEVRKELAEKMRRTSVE
Sequence of PAK1 (Q13153 whole entry): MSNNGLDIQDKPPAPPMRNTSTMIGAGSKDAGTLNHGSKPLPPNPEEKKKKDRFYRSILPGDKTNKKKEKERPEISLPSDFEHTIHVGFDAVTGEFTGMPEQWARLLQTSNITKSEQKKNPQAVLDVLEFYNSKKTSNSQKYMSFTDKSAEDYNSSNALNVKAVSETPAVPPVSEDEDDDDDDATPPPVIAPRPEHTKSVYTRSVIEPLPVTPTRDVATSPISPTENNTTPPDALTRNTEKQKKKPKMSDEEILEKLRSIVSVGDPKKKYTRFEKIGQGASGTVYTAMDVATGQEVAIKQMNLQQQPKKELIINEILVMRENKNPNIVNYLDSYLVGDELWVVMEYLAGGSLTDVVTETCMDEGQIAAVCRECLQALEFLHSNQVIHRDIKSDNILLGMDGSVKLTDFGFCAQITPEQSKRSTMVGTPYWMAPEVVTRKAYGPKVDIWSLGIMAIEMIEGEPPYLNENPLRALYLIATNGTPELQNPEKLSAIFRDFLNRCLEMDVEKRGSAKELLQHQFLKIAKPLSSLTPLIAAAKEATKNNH
Sequence of IGF1R (P08069 whole entry): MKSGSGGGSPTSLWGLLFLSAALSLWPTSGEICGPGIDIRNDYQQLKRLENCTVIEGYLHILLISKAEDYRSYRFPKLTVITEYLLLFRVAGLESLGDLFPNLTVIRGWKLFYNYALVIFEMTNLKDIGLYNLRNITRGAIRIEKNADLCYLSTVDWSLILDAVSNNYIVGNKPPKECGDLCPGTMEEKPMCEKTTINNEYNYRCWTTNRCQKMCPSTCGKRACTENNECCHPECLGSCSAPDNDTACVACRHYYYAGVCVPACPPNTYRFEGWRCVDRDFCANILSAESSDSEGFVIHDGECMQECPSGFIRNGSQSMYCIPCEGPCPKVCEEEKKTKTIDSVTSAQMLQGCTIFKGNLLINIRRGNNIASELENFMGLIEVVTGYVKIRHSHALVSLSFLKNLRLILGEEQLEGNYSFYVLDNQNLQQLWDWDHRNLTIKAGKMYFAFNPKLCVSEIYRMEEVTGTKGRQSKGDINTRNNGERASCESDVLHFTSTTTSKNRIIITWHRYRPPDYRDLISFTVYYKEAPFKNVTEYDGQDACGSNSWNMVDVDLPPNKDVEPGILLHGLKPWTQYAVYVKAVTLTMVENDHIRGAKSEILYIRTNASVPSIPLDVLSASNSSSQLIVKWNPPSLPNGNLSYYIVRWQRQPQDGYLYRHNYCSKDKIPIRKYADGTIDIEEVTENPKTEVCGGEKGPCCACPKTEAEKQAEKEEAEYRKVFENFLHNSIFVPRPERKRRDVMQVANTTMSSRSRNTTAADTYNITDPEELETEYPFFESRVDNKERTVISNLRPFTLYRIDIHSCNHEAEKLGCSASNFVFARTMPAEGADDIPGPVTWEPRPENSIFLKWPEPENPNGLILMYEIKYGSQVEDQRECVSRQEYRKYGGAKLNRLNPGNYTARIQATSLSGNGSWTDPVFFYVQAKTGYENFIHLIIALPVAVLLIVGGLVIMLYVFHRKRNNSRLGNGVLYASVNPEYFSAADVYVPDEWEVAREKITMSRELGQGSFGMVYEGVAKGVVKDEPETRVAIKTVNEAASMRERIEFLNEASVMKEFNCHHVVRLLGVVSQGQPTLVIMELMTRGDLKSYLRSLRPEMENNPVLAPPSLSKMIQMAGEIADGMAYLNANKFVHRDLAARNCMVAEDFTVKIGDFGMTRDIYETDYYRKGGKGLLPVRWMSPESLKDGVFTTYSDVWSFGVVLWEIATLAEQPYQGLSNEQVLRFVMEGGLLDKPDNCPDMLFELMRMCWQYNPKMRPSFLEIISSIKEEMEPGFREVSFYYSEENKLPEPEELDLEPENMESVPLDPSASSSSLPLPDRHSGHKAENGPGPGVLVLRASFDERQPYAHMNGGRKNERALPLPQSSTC

Take `C=CC(=O)Nc1cc(-n2c(=O)ccc3cnc4ccc(-n5cccn5)cc4c32)ccc1C` [CHMFL-BTK-11]: the remaining binding at 1 µM on EPHA8 is 92%; on LIMK1, 100%; on RIOK3 it was 80%; in experiment [1] it was 94%; on LCK, 100%; on PAK1, 100%. Also, the remaining binding at 1 µM was 100% in experiment [2]; 100% on BMPR2; 91% in experiment [3]; 100% at RIPK2; 100% at KIT(V559D,V654A); 99% on MAP3K2. Besides, the remaining binding at 1 µM at QSK was found to be 92%; on PIK3C2B, 100%; at AMPK-alpha1 it was 100%; in experiment [4] it was 100%; at CAMKK2 it was 78%; on IGF1R it was 100%. In addition, the remaining binding at 1 µM on PHKG2 is 100%; at PDGFRB, 100%; at CSF1R-autoinhibited, 70%; at ACVR1, 100%; at NIM1, 100%; at LRRK2(G2019S), 95%.
